Measurements as given in patent US20100113465A1, “7-AZASPIRO[3.5]NONANE-7-CARBOXAMIDE COMPOUNDS” (Pfizer Inc., priority 2008, published 2010).

Tests used:
rat FAAH = target: T1, rat FAAH (Rattus norvegicus, UniProt P97612); experiment: FAAH assay, rat FAAH enzyme inhibition (kinact/Ki); format: biochemical; settings: oleamide substrate 50 μM, 30° C., read-out: rFAAH kinact/Ki
T1 construct: made in house; host or cells: E. coli
T1 sequence (P97612 1-579): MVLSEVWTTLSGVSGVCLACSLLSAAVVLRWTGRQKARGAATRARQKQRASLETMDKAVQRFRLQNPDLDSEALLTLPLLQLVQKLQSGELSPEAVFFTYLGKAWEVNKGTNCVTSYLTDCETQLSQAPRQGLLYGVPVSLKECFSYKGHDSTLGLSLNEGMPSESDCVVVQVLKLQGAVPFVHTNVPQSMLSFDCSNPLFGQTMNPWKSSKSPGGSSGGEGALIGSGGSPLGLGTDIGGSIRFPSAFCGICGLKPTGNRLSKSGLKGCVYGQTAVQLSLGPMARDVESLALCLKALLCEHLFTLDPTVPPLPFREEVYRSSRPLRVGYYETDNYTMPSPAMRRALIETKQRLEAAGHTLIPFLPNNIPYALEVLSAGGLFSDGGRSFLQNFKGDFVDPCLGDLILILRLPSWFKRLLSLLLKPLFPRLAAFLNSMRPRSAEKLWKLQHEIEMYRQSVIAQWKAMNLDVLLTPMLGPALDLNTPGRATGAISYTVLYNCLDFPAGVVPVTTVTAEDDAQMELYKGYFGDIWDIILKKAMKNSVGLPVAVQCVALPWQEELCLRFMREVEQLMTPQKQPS
Procedure: (§1) The FAAH assay was carried out in 384-well clear polystyrene plates (Evergreen Scientific) in a total volume of 50 μl per well in a manner similar to that described by Mileni et al., Proc. Nat. Acad. Sci. 2008, 105, 12820-12824. All percents are by volume. Serial dilutions of compound were initially prepared in 100% DMSO, and then diluted two-fold into HPLC-grade H2O to give 50% DMSO. To each well, was placed the reaction mixture (40 μl) containing 1-4 nM FAAH, 50 mM NaPi, pH 7.4, 3 mM α-ketoglutarate, 0.15 mM NADH, 7.5 U/ml glutamate dehydrogenase, 2 mM ADP, 1 mM EDTA, and 0.1% Triton X-100 (The concentration shown for each component is the final concentration in the assay). To this mixture, was added 5 μl of a compound of Examples 1 to 56 at various concentrations in 50% DMSO (or 5 μl 50% DMSO for controls). This was immediately followed by the addition of 5 μl oleamide (500 μM) dissolved in 75% EtOH/25% DMSO and the reaction mixture was mixed for 1.5 min. The final concentrations of DMSO and EtOH in the assay were each 7.5%. The reactions were incubated at 30° C. and the absorbance at 340 nm was collected over a period of 90 min with readings taken in 30-second intervals using SpectraMax Plus^384 Microplate Spectrophotometer (Molecular Devices, Sunnyvale, Calif.). The human FAAH and rat FAAH used in the assay was prepared as described in the patent application WO 2006/067613 using wild-type E. coli cells transformed in St. Louis, Mo., U.S.A. The purity of the enzyme was greater than 98% based on an analysis by SDS-polyacrylamide gel electrophoresis followed by Coomassie Blue staining.
(§2) Reaction progress curves were corrected for the non-enzymatic oxidation of NADH by subtraction of absorbancies at each time point obtained from control reactions containing no FAAH enzyme. The loss of enzyme activity as a function of time is well-described by the following mathematical equation (1) for a mono-exponential decay: […]
(§3) where At represents the absorbance at time t, A0 represents the absorbance at time zero, and C represents a constant. Observed rates of enzyme inactivation (kobs) were determined from the non-linear reaction progress curves by fitting the corrected absorbancies to an equation for a mono-exponential decay using the third-party Microsoft Excel plug-in, XLfit (IDBS Limited). Secondary plots of kobs vs. inhibitor concentration were prepared from kobs values obtained from progress curves. Second-order rates for enzyme inactivation, expressed as kinact/Ki (M^−1s^−1), were calculated from the slopes from linear regression analysis of the secondary plot of kobs vs. inhibitor concentration as defined in following equation (2), where [I]<<Ki:
(§4) The concentration of substrate in the assay was equal to the Km for oleamide of 50 μM. Therefore, reported kinact/Ki values are obtained by multiplying resulting slopes by a factor of two (i.e. slope=kinact/(Ki*2)).

Male Sprague-Dawley Rats = experiment: In vivo Complete Freund's Adjuvant (CFA) efficacy assay; set-up: species or system rat; key: (+) indicates the test compound was determined to be efficacious at 3 mpk, oral dosing; (−) indicates the test compound was determined to not be efficacious at 3 mpk, oral dosing; settings: 3 mpk, oral dosing; inhibition of allodynia (PWT) four hours postdose vs vehicle, p<0.05
Procedure: For additional information on the CFA efficacy assay, see Jayamanne et al., Brit. J. Pharmacol. 2006, 147, 281-288. Experiments were performed on adult Male Sprague-Dawley Rats (200 g-250 g). Inflammation was induced in the left hindpaw of the rat by an intra-plantar injection of 150 uL Complete Freund's Adjuvant (CFA) (SIGMA F5881). The CFA injection immediately induces local inflammation, paw swelling, and pain that persists for at least two weeks post-injection. Baseline paw withdrawal threshold (PWT) was measured to determine the percent inhibition of allodynia using a set of Von Frey Hairs on day 4 post injection as illustrated by the Dixon Up and Down Method (W. J. Dixon, Ann. Rev. Pharmacol. Toxicol. 1980, 20:441-462). […] Test compound was administered at a concentration of 3 mg/kg (mpk) orally with the dosing vehicle 5% N,N′-Dimethylacetamide (SIGMA D137510) and 95% (40% 2-hydroxypropyl-beta-cyclodextrin in water) (SIGMA H107). Following Dose administration PWT threshold was evaluated again at four hours postdose. The Sprague-Dawley rats used in this assay were purchased from Harlan, 8520 Allison Pointe Blvd., Indianapolis, Ind., 46250, U.S.A. Sprague-Dawley rats are an outbred breed of albino rats first produced by the Sprague Dawley farms in Madison, Wis., U.S.A.
Percent Inhibition of Allodynia was determined by the formula: […]
ΔPWT measurements were averaged for each treatment group and statistical comparisons between groups were made using ANOVA and Dunnett's two-tailed test. […]

human FAAH = target: T2, human FAAH (Homo sapiens, UniProt O00519); experiment: FAAH assay, human FAAH enzyme inhibition (kinact/Ki); format: biochemical; settings: oleamide substrate 50 μM, 30° C., read-out: hFAAH kinact/Ki
T2 construct: made in house; host or cells: E. coli
T2 sequence (O00519 1-579): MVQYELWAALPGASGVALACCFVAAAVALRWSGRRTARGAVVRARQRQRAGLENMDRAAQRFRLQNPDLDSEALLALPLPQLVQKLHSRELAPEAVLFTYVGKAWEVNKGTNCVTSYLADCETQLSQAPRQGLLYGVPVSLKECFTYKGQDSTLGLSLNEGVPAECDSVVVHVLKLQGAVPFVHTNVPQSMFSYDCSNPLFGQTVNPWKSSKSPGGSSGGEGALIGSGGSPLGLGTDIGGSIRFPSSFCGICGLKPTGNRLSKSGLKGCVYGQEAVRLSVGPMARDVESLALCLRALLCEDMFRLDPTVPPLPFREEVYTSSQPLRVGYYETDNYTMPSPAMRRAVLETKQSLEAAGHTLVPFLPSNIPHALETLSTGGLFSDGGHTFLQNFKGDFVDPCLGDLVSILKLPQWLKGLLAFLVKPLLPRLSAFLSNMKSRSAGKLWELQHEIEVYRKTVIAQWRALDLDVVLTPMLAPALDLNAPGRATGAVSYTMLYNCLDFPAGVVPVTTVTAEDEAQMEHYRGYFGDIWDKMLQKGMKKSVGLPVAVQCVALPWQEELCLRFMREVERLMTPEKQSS
Procedure: as §1, §2, §3, §4

| kinact/KI (rat FAAH) [M⁻¹ s⁻¹] | kinact/KI (human FAAH) [M⁻¹ s⁻¹] | SMILES | CFA Efficacy (Male Sprague-Dawley Rats) |
| --- | --- | --- | --- |
| 26800 | 21700 | Cn1nnnc1NC(=O)N1CCC2(CC1)CC(c1cccc(Oc3ccc(C(F)(F)F)cn3)c1)C2 [Example 54, N-(1-methyl-1H-tetrazol-5-yl)-2-(3-{[5-(trifluoromethyl)pyridin-2-yl]oxy}phenyl)-7-azaspiro[3.5]nonane-7-carboxamide] | (+) |
| 1710 | 2820 | Cc1noc(NC(=O)N2CCC3(CC2)CC(F)(c2cccc(OC(F)(F)F)c2)C3)c1C [Example 23, N-(3,4-dimethylisoxazol-5-yl)-2-fluoro-2-[3-(trifluoromethoxy)phenyl]-7-azaspiro[3.5]nonane-7-carboxamide] | (+) |
| 3410 | 14100 | Cn1nnnc1NC(=O)N1CCC2(CC1)CC(c1cccc(Cl)c1F)C2 [Example 46, 2-(3-chloro-2-fluorophenyl)-N-(1-methyl-1H-tetrazol-5-yl)-7-azaspiro[3.5]nonane-7-carboxamide] | (+) |
| 3560 | 3940 | Cc1noc(NC(=O)N2CCC3(CC2)CC(c2cccc(Cl)c2)C3)c1C [Example 13, 2-(3-chlorophenyl)-N-(3,4-dimethylisoxazol-5-yl)-7-azaspiro[3.5]nonane-7-carboxamide] | (+) |
| 1700 | 4480 | Cc1noc(NC(=O)N2CCC3(CC2)CC(c2cccc(OCCOc4ccccc4)c2)C3)c1C [Example 26, N-(3,4-dimethylisoxazol-5-yl)-2-[3-(2-phenoxyethoxy)phenyl]-7-azaspiro[3.5]nonane-7-carboxamide] | (+) |
| 1340 | 5670 | CCc1cccc(C2CC3(CCN(C(=O)Nc4onc(C)c4C)CC3)C2)c1 [Example 22, N-(3,4-dimethylisoxazol-5-yl)-2-(3-ethylphenyl)-7-azaspiro[3.5]nonane-7-carboxamide] | (−) |
| 3470 | 4550 | Cc1noc(NC(=O)N2CCC3(CC2)CC(c2ccc(Cl)c(Cl)c2)C3)c1C [Example 20, 2-(3,4-dichlorophenyl)-N-(3,4-dimethylisoxazol-5-yl)-7-azaspiro[3.5]nonane-7-carboxamide] | (+) |
| 1810 | 2940 | Cc1noc(NC(=O)N2CCC3(CC2)CC(c2cccc(OCCOc4ccccc4Cl)c2)C3)c1C [Example 27, 2-{3-[2-(2-chlorophenoxy)ethoxy]phenyl}-N-(3,4-dimethylisoxazol-5-yl)-7-azaspiro[3.5]nonane-7-carboxamide] | (+) |
| 636 | 1600 | Cc1noc(NC(=O)N2CCC3(CC2)CC(c2noc(-c4ccc(C(F)(F)F)cc4)n2)C3)c1C [Example 33, N-(3,4-dimethylisoxazol-5-yl)-2-{5-[4-(trifluoromethyl)phenyl]-1,2,4-oxadiazol-3-yl}-7-azaspiro[3.5]nonane-7-carboxamide] | (+) |
| 2340 | 3240 | Cc1noc(NC(=O)N2CCC3(CC2)CC(c2cccc(C(F)(F)F)c2F)C3)c1C [Example 30, N-(3,4-dimethylisoxazol-5-yl)-2-[2-fluoro-3-(trifluoromethyl)phenyl]-7-azaspiro[3.5]nonane-7-carboxamide] | (+) |
| 2990 | 3950 | Cc1cc(C2CC3(CCN(C(=O)Nc4onc(C)c4C)CC3)C2)ccc1F [Example 12, N-(3,4-dimethylisoxazol-5-yl)-2-(4-fluoro-3-methylphenyl)-7-azaspiro[3.5]nonane-7-carboxamide] | (+) |
| 5940 | 16300 | Cn1nnnc1NC(=O)N1CCC2(CC1)CC(c1ccc(F)c(Cl)c1)C2 [Example 48, 2-(3-chloro-4-fluorophenyl)-N-(1-methyl-1H-tetrazol-5-yl)-7-azaspiro[3.5]nonane-7-carboxamide] | (+) |
| 552 | 5240 | Cn1nnnc1NC(=O)N1CCC2(CC1)CC(c1noc(-c3ccc(C(F)(F)F)cc3)n1)C2 [Example 49, N-(1-methyl-1H-tetrazol-5-yl)-2-{5-[4-(trifluoromethyl)phenyl]-1,2,4-oxadiazol-3-yl}-7-azaspiro[3.5]nonane-7-carboxamide] | (+) |
| 2470 | 3840 | Cc1noc(NC(=O)N2CCC3(CC2)CC(c2cccc(Cl)c2F)C3)c1C [Example 29, 2-(3-chloro-2-fluorophenyl)-N-(3,4-dimethylisoxazol-5-yl)-7-azaspiro[3.5]nonane-7-carboxamide] | (+) |
| 5750 | 12400 | Cn1nnnc1NC(=O)N1CCC2(CC1)CC(c1cccc(C(F)(F)F)c1)C2 [Example 24, N-(1-methyl-1H-tetrazol-5-yl)-2-[3-(trifluoromethyl)phenyl]-7-azaspiro[3.5]nonane-7-carboxamide] | (+) |
